Measured values: the supplement of paper PMC10307832

How the values were obtained:
Assay in all cases: relative viability (nuclei count vs DMSO), 5 days (fraction); higher = more cells survive
[1] = compound: C=CCn1c(=O)c2cnc(Nc3ccc(N4CCN(C)CC4)cc3)nc2n1-c1cccc(C(C)(C)O)n1 [Adavosertib] + CS(=O)(=O)CCNCc1ccc(-c2ccc3ncnc(Nc4ccc(OCc5cccc(F)c5)c(Cl)c4)c3c2)o1 [Lapatinib] (partner 2 µM)
In short: (§1)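 Dosing by pin tool came one day after lung cancer cell lines were seeded in 1536-well plates, using either one drug or a fixed anchor-drug dose plus five library-drug doses (not always all listed) in √10 steps. After 5 days, nuclei were counted on 4× images. Relative viability is treated-well nuclei count divided by vehicle-well nuclei count, and values are medians of duplicate plates.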

[2] = compound: C=CCn1c(=O)c2cnc(Nc3ccc(N4CCN(C)CC4)cc3)nc2n1-c1cccc(C(C)(C)O)n1 [Adavosertib] + CS(=O)(=O)N1CCN(Cc2cc3nc(-c4cccc5[nH]ncc45)nc(N4CCOCC4)c3s2)CC1 [Pictilisib] (partner 1 µM)
In short: as §1

[3] = compound: COc1nc(N)nc2c1ncn2[C@@H]1O[C@H](CO)[C@@H](O)[C@@H]1O [Nelarabine] + CS(=O)(=O)CCNCc1ccc(-c2ccc3ncnc(Nc4ccc(OCc5cccc(F)c5)c(Cl)c4)c3c2)o1 [Lapatinib] (partner 2 µM)
In short: as §1

[4] = compound: COc1nc(N)nc2c1ncn2[C@@H]1O[C@H](CO)[C@@H](O)[C@@H]1O [Nelarabine] + Cc1nc(NC(=O)N2CCC[C@H]2C(N)=O)sc1-c1ccnc(C(C)(C)C(F)(F)F)c1 [Alpelisib] (partner 2 µM)
In short: as §1

Cell Line	relative viability ([1]; first compound 0.01 µM)	relative viability ([1]; first compound 0.03162 µM)	relative viability ([1]; first compound 0.1 µM)	relative viability ([1]; first compound 0.3162 µM)	relative viability ([2]; first compound 0.01 µM)	relative viability ([2]; first compound 0.03162 µM)	relative viability ([2]; first compound 0.1 µM)	relative viability ([2]; first compound 0.3162 µM)	relative viability ([3]; first compound 0.01 µM)	relative viability ([3]; first compound 0.03162 µM)	relative viability ([3]; first compound 0.1 µM)	relative viability ([3]; first compound 0.3162 µM)	relative viability ([3]; first compound 1 µM)	relative viability ([4]; first compound 0.01 µM)	relative viability ([4]; first compound 0.03162 µM)	relative viability ([4]; first compound 0.1 µM)	relative viability ([4]; first compound 0.3162 µM)	relative viability ([4]; first compound 1 µM)
UMC-11	0.939	0.999	0.851	1.28	0.817	0.723	0.743	0.755	1.05	0.863	1.02	1.02	1.14	1.1	0.597	0.909	1.02	0.96
LOU-NH91	0.74	0.804	0.734	0.674	0.521	0.508	0.544	0.457	0.817	0.633	0.692	0.775	0.788	0.74	0.704	0.661	0.706	0.738
NCI-H1299	0.954	0.968	0.977	0.431	0.982	0.66	0.541	0.123	1	0.999	1.02	0.98	1	1.16	1.11	1.04	1.08	1.2
HCC-44	0.976	1.04	1.08	1.14	0.518	0.647	0.526	0.62	1.08	1.07	1.14	1.03	1.02	0.888	0.876	0.74	0.871	0.831
NCI-H1437	0.83	0.778	0.831	0.812	0.371	0.435	0.401	0.404	1.06	0.83	0.815	0.839	0.79	1.17	0.918	0.945	1.13	1.03
HARA	0.648	0.858	0.648	0.729	0.409	0.461	0.374	0.269	0.971	0.666	0.719	0.808	0.767	0.925	0.737	0.768	1.09	0.806
EBC-1	0.198	0.206	0.25	0.21	0.387	0.429	0.382	0.286	0.177	0.205	0.188	0.215	0.197	0.86	0.829	0.941	0.87	0.951
NCI-H2085	0.743	0.813	0.86	0.836	0.491	0.451	0.41	0.519	0.889	0.804	0.74	0.754	0.835	1.06	0.992	0.94	1.01	1.02
NCI-H322M		0.558	0.505	0.435		0.521	0.504	0.421	0.653	0.581	0.529	0.604	0.602	0.926	0.792	0.677	0.772	0.836
